Experimental data published in US11548888B2, “KRas G12C inhibitors” (Mirati Therapeutics, Inc., priority 2019, dated 2023).

Biological target: T1, KRas G12C (Homo sapiens, UniProt P01116, G12C)
T1 construct: NCI-H358 cells (ATCC CRL-5807) express KRas G12C
Test: Inhibition of KRas G12C-dependent cell growth: Phospho-ERK in NCI-H358 cells
Format: cell-based
Conditions: NCI-H358 cells expressing KRas G12C; Phospho-ERK (Thr202/Tyr204) normalized to GAPDH; 3 hours compound; 4 parameter fit
Summary of the method: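 NCI-H358 cells (KRas G12C) exposed to compounds for 3 h, 0.5% DMSO final. Fixed cells immunostained for pERK(Thr202/Tyr204) and GAPDH with infrared secondary antibodies. pERK normalized to GAPDH, expressed as percent of DMSO control; IC50 from 4-parameter dose-response fit.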

T1 sequence (P01116 1-188 isoform P01116-2 G12C): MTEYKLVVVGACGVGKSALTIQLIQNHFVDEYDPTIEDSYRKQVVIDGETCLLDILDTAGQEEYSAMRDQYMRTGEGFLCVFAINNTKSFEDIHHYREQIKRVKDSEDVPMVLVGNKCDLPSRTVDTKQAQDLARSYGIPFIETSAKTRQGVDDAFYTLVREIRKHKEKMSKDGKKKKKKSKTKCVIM

Row | IC50 [nM] | Structure (SMILES)
1 | 42 | C=C(F)C(=O)N1CCN(c2nc(OC[C@@H]3CCCN3C(C)C)nc3c(F)c(-c4cccc5cccc(Cl)c45)ncc23)C[C@@H]1CC#N [Example 125]
2 | 26 | C=C(F)C(=O)N1CCN(c2nc(OCC3CCN3C(C)C)nc3c(F)c(-c4cccc5ccc(F)c(Cl)c45)ncc23)C[C@@H]1CC#N (some centres unmarked) [Example 130]
3 | 168 | C=C(F)C(=O)N1CCN(c2nc(OCCCN3C[C@@H]4C[C@H]3CO4)nc3c(F)c(-c4cncc5cccc(Cl)c45)ncc23)C[C@@H]1CC#N [Example 37, 2-[(2S)-4-[7-(5-chloro-4-isoquinolyl)-8-fluoro-2-[3-[(1S,4S)-2-oxa-5-azabicyclo[2.2.1]heptan-5-yl]propoxy]pyrido[4,3-d]pyrimidin-4-yl]-1-(2-fluoroprop-2-enoyl)piperazin-2-yl]acetonitrile]
4 | 90 | C=CC(=O)N1CC[C@@H]2[C@H]1[C@H](C)N2c1ncnc2c(F)c(-c3cccc4ccc(F)c(Cl)c34)ncc12 [Example 280]
5 | 2150 | C#Cc1cccc2cc(Cl)cc(-c3ncc4c(N5C[C@@H]6[C@H]5CCN6C(=O)C=C)ncnc4c3F)c12 [Example 294, 1-((1R,5R)-6-(7-(3-chloro-8-ethynylnaphthalen-1-yl)-8-fluoropyrido[4,3-d]pyrimidin-4-yl)-2,6-diazabicyclo[3.2.0]heptan-2-yl)prop-2-en-1-one]
6 | 19 | C=C(F)C(=O)N1CCN(c2nc(N3CC(N(C)C)C3)nc3c(F)c(-c4cccc5ccc(F)c(Cl)c45)ncc23)C[C@@H]1CC#N [Example 170]
7 | 31 | Cc1cccc2cccc(-c3ncc4c(N5CCN(C(=O)/C=C/CF)[C@@H](CC#N)C5)nc(OC[C@@H]5CCCN5C)nc4c3F)c12 [Example 12, 2-[(2S)-1-[(E)-4-fluorobut-2-enoyl]-4-[8-fluoro-7-(8-methyl-1-naphthyl)-2-[[(2S)-1-methylpyrrolidin-2-yl]methoxy]pyrido[4,3-d]pyrimidin-4-yl]piperazin-2-yl]acetonitrile]
8 | 60 | C=C(F)C(=O)N1CCN(c2nc(OC[C@@H]3CCN(C)C3)nc3c(F)c(-c4cccc5ccc(F)c(Cl)c45)ncc23)C[C@@H]1CC#N [Example 169]
9 | 2 | C=CC(=O)N1CCN(c2nc(OC[C@@H]3CCCN3C)nc3c(F)c(-c4cccc5cccc(C)c45)ncc23)C[C@@H]1CC#N [Example 10, 2-[(2S)-4-[8-fluoro-7-(8-methyl-1-naphthyl)-2-[[(2S)-1-methylpyrrolidin-2-yl]methoxy]pyrido[4,3-d]pyrimidin-4-yl]-1-prop-2-enoyl-piperazin-2-yl]acetonitrile]
10 | 30 | C#Cc1c(F)ccc2cccc(-c3ncc4c(N5C[C@@H]6[C@H]5CCN6C(=O)C=C)ncnc4c3F)c12 [Example 290, 1-((1R, 5R)-6-(7-(8-ethynyl-7-fluoronaphthalen-1-yl)-8-fluoropyrido[4,3-d]pyrimidin-4-yl)-2,6-diazabicyclo[3.2.0]heptan-2-yl)prop-2-en-1-one]
11 | 70 | COC/C=C/C(=O)N1CCN(c2nc(OC[C@@H]3CCCN3C)nc3c(F)c(-c4cccc5cccc(C)c45)ncc23)C[C@@H]1CC#N [Example 61, 2-[(2S)-4-[8-fluoro-7-(8-methyl-1-naphthyl)-2-[[(2S)-1-methylpyrrolidin-2-yl]methoxy]pyrido[4,3-d]pyrimidin-4-yl]-1-[(E)-4-methoxybut-2-enoyl]piperazin-2-yl]acetonitrile]
12 | 15 | C=C(F)C(=O)N1CCN(c2nc(OC[C@@H]3CCCN3CC)nc3c(F)c(-c4cccc5ccc(F)c(Cl)c45)ncc23)C[C@@H]1CC#N [Example 128]
13 | 14 | C=C(F)C(=O)N1CCN(c2nc(OC[C@@H]3CCCN3C)nc3c(F)c(-c4cc(O)cc5ccccc45)ncc23)C[C@@H]1CC#N [Example 95]
14 | 30 | C=C(F)C(=O)N1CCN(c2nc(OC[C@@H]3[C@@H](F)CCN3C)nc3c(F)c(-c4cccc5ccc(F)c(Cl)c45)ncc23)C[C@@H]1CC#N [Example 176]
15 | 6470 | C=CC(=O)N1CCC12CN(c1ncnc3c(F)c(-c4cccc5ccc(F)c(Cl)c45)ncc13)C2 [Example 246, 1-(6-(7-(8-chloro-7-fluoronaphthalen-1-yl)-8-fluoropyrido[4,3-d]pyrimidin-4-yl)-1,6-diazaspiro[3.3]heptan-1-yl)prop-2-en-1-one]
16 | 10000 | C=CC(=O)N1CCN(c2ncnc3c(F)c(-c4cccc5ccccc45)ncc23)CC1 [Example 223]
17 | 10000 | C=CC(=O)N1CCN(c2nc(OC[C@@H]3CCCN3C)nc3c(F)c(-c4ccccc4F)ncc23)[C@@H](C)C1 [Example 100]
18 | 486 | O=C(/C=C/C(F)F)N1CC[C@@H]2[C@H]1CN2c1ncnc2c(F)c(-c3cccc4ccc(F)c(Cl)c34)ncc12 [Example 261]
19 | 73 | C=C(F)C(=O)N1CCN(c2nc(OCCCN3C[C@@H]4C[C@H]3CO4)nc3c(F)c(-c4cccc5ccc(F)c(Cl)c45)ncc23)C[C@@H]1CC#N [Example 129]
20 | 5 | C=CC(=O)N1CC[C@@H]2[C@H]1CN2c1nc(OC[C@@H]2CCCN2C)nc2c(F)c(-c3cccc4ccc(F)c(Cl)c34)ncc12 [Example 239]
21 | 675 | C=CC(=O)N1CCN(c2nc(OC[C@@H]3CCCN3C)nc3c(F)c(-c4c(C)ccc5[nH]ncc45)ncc23)[C@@H](C)C1 [Example 79]

Row | IC50 [nM] | Structure (SMILES)
22 | 1350 | C=CC(=O)N1CC2(CCN(c3nc(OC4CCN(C5CCOCC5)CC4)nc4c(F)c(-c5cccc6cccc(Cl)c56)ncc34)CC2)C1 [Example 74]
23 | 410 | CN(C)CC#CC(=O)N1CCN(c2ncnc3c(F)c(-c4cccc5ccc(F)c(Cl)c45)ncc23)CC1 [Example 200]
24 | 20 | C=C(F)C(=O)N1CCN(c2nc(OCC3CCC4CCCN43)nc3c(F)c(-c4cccc5ccc(F)c(Cl)c45)ncc23)C[C@@H]1CC#N (some centres unmarked) [Example 174]
25 | 119 | C=C(F)C(=O)N1CCN(c2nc(OC[C@@H]3C[C@@H](F)CN3C)nc3c(F)c(-c4cccc5cccc(C)c45)ncc23)C[C@@H]1CC#N [Example 14, 2-[(2S)-4-[8-fluoro-2-[[(2S,4R)-4-fluoro-1-methyl-pyrrolidin-2-yl]methoxy]-7-(8-methyl-1-naphthyl)pyrido[4,3-d]pyrimidin-4-yl]-1-(2-fluoroprop-2-enoyl)piperazin-2-yl]acetonitrile]
26 | 6050 | C=CC(=O)N1CCN(c2ncnc3c(F)c(-c4cccc5ccc(F)c(Cl)c45)ncc23)CC1C#N (centres unmarked) [Example 135]
27 | 224 | C=C(F)C(=O)N1CCN(c2nc(OCC3CN(C)CC3(F)F)nc3c(F)c(-c4cccc5ccc(F)c(Cl)c45)ncc23)C[C@@H]1CC#N (single isomer, unassigned) [Example 179]
28 | 221 | C=C(F)C(=O)N1CCN(c2nc(OCC3(C)COC3)nc3c(F)c(-c4cccc5ccc(F)c(Cl)c45)ncc23)C[C@@H]1CC#N [Example 154]
29 | 118 | C=C(F)C(=O)N1CCN(c2nc(OC[C@H]3CCCN3C)nc3c(F)c(-c4cccc5cccc(C)c45)ncc23)C[C@@H]1CC#N [Example 16, 2-((S)-4-(8-fluoro-7-(8-methylnaphthalen-1-yl)-2-(((R)-1-methylpyrrolidin-2-yl)methoxy)pyrido[4,3-d]pyrimidin-4-yl)-1-(2-fluoroacryloyl)piperazin-2-yl)acetonitrile]
30 | 76 | N#CC[C@H]1CN(c2ncnc3c(F)c(-c4cccc5ccc(F)c(Cl)c45)ncc23)CCN1C(=O)/C=C/C(F)F [Example 115]
31 | 60 | C=C(F)C(=O)N1CCN(c2nc(OC[C@H]3C[C@@H](F)CN3C)nc3c(F)c(-c4cccc5ccc(F)c(Cl)c45)ncc23)C[C@@H]1CC#N [Example 167]
32 | 2110 | C#Cc1cccc2cccc(-c3ncc4c(N5CCN(C(=O)C=C)CC5)ncnc4c3F)c12 [Example 214, 1-(4-(7-(8-ethynylnaphthalen-1-yl)-8-fluoropyrido[4,3-d]pyrimidin-4-yl)piperazin-1-yl)prop-2-en-1-one]
33 | 26 | CN1CCC[C@H]1COc1nc(N2CCN(C(=O)/C=C/CF)[C@@H](CC#N)C2)c2cnc(-c3cncc4cccc(Cl)c34)c(F)c2n1 [Example 90]
34 | 544 | Cc1cccc2cncc(-c3ncc4c(N5CCN(C(=O)/C=C/CF)[C@@H](CC#N)C5)nc(OCCCN5C[C@@H]6C[C@H]5CO6)nc4c3F)c12 [Example 39, 2-[(2S)-1-[(E)-4-fluorobut-2-enoyl]-4-[8-fluoro-7-(5-methyl-4-isoquinolyl)-2-[3-[(1S,4S)-2-oxa-5-azabicyclo[2.2.1]heptan-5-yl]propoxy]pyrido[4,3-d]pyrimidin-4-yl]piperazin-2-yl]acetonitrile]
35 | 127 | C=CC(=O)N1CCN(c2nc(OC[C@@H]3CCCN3C)nc3c(F)c(-c4ccccc4F)ncc23)C[C@@H]1CC#N [Example 60, 2-[(2S)-4-[8-fluoro-7-(2-fluorophenyl)-2-[[(2S)-1-methylpyrrolidin-2-yl]methoxy]pyrido[4,3-d]pyrimidin-4-yl]-1-prop-2-enoyl-piperazin-2-yl]acetonitrile]
36 | 4 | C#Cc1c(F)ccc2cccc(-c3ncc4c(N5C[C@@H]6[C@H]5CCN6C(=O)C=C)nc(N5CC(N(C)C)C5)nc4c3F)c12 [Example 297]
37 | 10000 | C=CC(=O)N1CCN(c2nc(C)nc3c(F)c(-c4cccc5cccc(Cl)c45)ncc23)CC1 [Example 153]
38 | 16 | C=CC(=O)N1CC[C@@H]2[C@H]1CN2c1nc(N2CC(N(C)C)C2)nc2c(F)c(-c3cccc4ccc(F)c(Cl)c34)ncc12 [Example 273]
39 | 1490 | C=CC(=O)N1CC[C@@H]2[C@H]1CN2c1nc(OC2COC2)nc2c(F)c(-c3cccc4ccc(F)c(Cl)c34)ncc12 [Example 265]
40 | 456 | C=C(F)C(=O)N1CCN(c2nc(OC3CCN(C)CC3)nc3c(F)c(-c4cccc5cccc(Cl)c45)ncc23)C[C@@H]1CC#N [Example 70]
41 | 329 | C=C(F)C(=O)N1CCN(c2nc(OC[C@@H]3CC(F)(F)CN3C(C)C)nc3c(F)c(-c4cccc5ccc(F)c(Cl)c45)ncc23)C[C@@H]1CC#N [Example 118]
